Data as given in ChEMBL document CHEMBL1275437, “Prevalence of serotype 19A Streptococcus pneumoniae among isolates from U.S. children in 2005-2006 and activity of faropenem” (2008).
Values after ≈ are worked out from the molar mass of the structure shown.

Tests used:
Format in all cases: functional
Streptococcus pneumoniae [1] = assay: Antibacterial activity against Streptococcus pneumoniae serotype 33 assessed as percent susceptible isolates by broth microdilution method
Streptococcus pneumoniae [2] = assay: Antibacterial activity against Streptococcus pneumoniae serotype 15A assessed as percent susceptible isolates by broth microdilution method
Streptococcus pneumoniae [3] = assay: Antibacterial activity against Streptococcus pneumoniae serotype 3 by broth microdilution method
Streptococcus pneumoniae [4] = assay: Antibacterial activity against Streptococcus pneumoniae serotype 19F assessed as percent susceptible isolates by broth microdilution method
Streptococcus pneumoniae [5] = assay: Antibacterial activity against Streptococcus pneumoniae serotype 15A assessed as percent resistant isolates by broth microdilution method; details: Streptococcus pneumoniae, serotype 15A
Streptococcus pneumoniae [6] = assay: Antibacterial activity against Streptococcus pneumoniae serotype 33 assessed as percent resistant isolates by broth microdilution method
Streptococcus pneumoniae [7] = assay: Antibacterial activity against Streptococcus pneumoniae serotype 3 assessed as percent resistant isolates by broth microdilution method
Streptococcus pneumoniae [8] = assay: Antibacterial activity against Streptococcus pneumoniae serotype 19F assessed as percent resistant isolates by broth microdilution method; details: Streptococcus pneumoniae, serotype 19F
Streptococcus pneumoniae [9] = assay: Antibacterial activity against Streptococcus pneumoniae serotype 22 by broth microdilution method
Streptococcus pneumoniae [10] = assay: Antibacterial activity against Streptococcus pneumoniae serotype 35B assessed as percent susceptible isolates by broth microdilution method
Streptococcus pneumoniae [11] = assay: Antibacterial activity against Streptococcus pneumoniae serotype 6A/C assessed as percent susceptible isolates by broth microdilution method
Streptococcus pneumoniae [12] = assay: Antibacterial activity against Streptococcus pneumoniae serotype 23A assessed as percent resistant isolates by broth microdilution method
Streptococcus pneumoniae [13] = assay: Antibacterial activity against Streptococcus pneumoniae serotype 6A/C by broth microdilution method
Streptococcus pneumoniae [14] = assay: Antibacterial activity against Streptococcus pneumoniae serotype 22 assessed as percent resistant isolates by broth microdilution method
Streptococcus pneumoniae [15] = assay: Antibacterial activity against Streptococcus pneumoniae serotype 19F by broth microdilution method
Streptococcus pneumoniae [16] = assay: Antibacterial activity against Streptococcus pneumoniae serotype 22 assessed as percent susceptible isolates by broth microdilution method
Streptococcus pneumoniae [17] = assay: Antibacterial activity against Streptococcus pneumoniae serotype 35B assessed as percent resistant isolates by broth microdilution method; details: Streptococcus pneumoniae, serotype 35B
Streptococcus pneumoniae [18] = assay: Antibacterial activity against Streptococcus pneumoniae serotype 33 by broth microdilution method
Streptococcus pneumoniae [19] = assay: Antibacterial activity against Streptococcus pneumoniae serotype 19A assessed as percent susceptible isolates by broth microdilution method
Streptococcus pneumoniae [20] = assay: Antibacterial activity against Streptococcus pneumoniae serotype 19A assessed as percent resistant isolates by broth microdilution method; details: Streptococcus pneumoniae, serotype 19A
Streptococcus pneumoniae [21] = assay: Antibacterial activity against Streptococcus pneumoniae serotype 3 assessed as percent susceptible isolates by broth microdilution method
Streptococcus pneumoniae [22] = assay: Antibacterial activity against Streptococcus pneumoniae serotype 19A by broth microdilution method
Streptococcus pneumoniae [23] = assay: Antibacterial activity against Streptococcus pneumoniae serotype 15A by broth microdilution method
Streptococcus pneumoniae [24] = assay: Antibacterial activity against Streptococcus pneumoniae serotype 23A by broth microdilution method
Streptococcus pneumoniae [25] = assay: Antibacterial activity against Streptococcus pneumoniae serotype 35B by broth microdilution method
Streptococcus pneumoniae [26] = assay: Antibacterial activity against Streptococcus pneumoniae serotype 23A assessed as percent susceptible isolates by broth microdilution method
Streptococcus pneumoniae [27] = assay: Antibacterial activity against Streptococcus pneumoniae serotype 6A/C assessed as percent resistant isolates by broth microdilution method; details: Streptococcus pneumoniae, serotype 6A/C

| Compound | % susceptible isolates (Streptococcus pneumoniae [1]) [%] | percent susceptible isolates (Streptococcus pneumoniae [2]) [%] | MIC90 (Streptococcus pneumoniae [3]) [µg/mL] | percent susceptible isolates (Streptococcus pneumoniae [4]) [%] | % resistant isolates (Streptococcus pneumoniae [5]) [%] | % resistant isolates (Streptococcus pneumoniae [6]) [%] | % resistant isolates (Streptococcus pneumoniae [8]) [%] | MIC90 (Streptococcus pneumoniae [9]) [µg/mL] | percent susceptible isolates (Streptococcus pneumoniae [11]) [%] | % resistant isolates (Streptococcus pneumoniae [12]) [%] | MIC90 (Streptococcus pneumoniae [13]) [µg/mL] | % resistant isolates (Streptococcus pneumoniae [14]) [%] | MIC90 (Streptococcus pneumoniae [15]) [µg/mL] | % susceptible isolates (Streptococcus pneumoniae [16]) [%] | % resistant isolates (Streptococcus pneumoniae [17]) [%] | MIC90 (Streptococcus pneumoniae [18]) [µg/mL] | percent susceptible isolates (Streptococcus pneumoniae [19]) [%] | % resistant isolates (Streptococcus pneumoniae [20]) [%] | % susceptible isolates (Streptococcus pneumoniae [21]) [%] | MIC90 (Streptococcus pneumoniae [22]) [µg/mL] | other results |
| --- | --- | --- | --- | --- | --- | --- | --- | --- | --- | --- | --- | --- | --- | --- | --- | --- | --- | --- | --- | --- | --- |
| CC[C@H]1OC(=O)[C@H](C)[C@@H](O[C@H]2C[C@@](C)(OC)[C@@H](O)[C@H](C)O2)[C@H](C)[C@@H](O[C@@H]2O[C@H](C)C[C@H](N(C)C)[C@H]2O)[C@](C)(O)C[C@@H](C)CN(C)[C@H](C)[C@@H](O)[C@]1(C)O [AZITHROMYCIN] | 42 | 7 | 0.5 (≈ 0.668 µM) | 29 | 93 | 0 | 71 | ≤ 0.12 | 31 | 0 | 8 (≈ 10.7 µM) | 0 | > 16 | 100 | 27 | 16 (≈ 21.4 µM) | 36 | 64 | 93 | > 16 | % resistant isolates (Streptococcus pneumoniae [7]; Streptococcus pneumoniae, serotype 3): 4%; % susceptible isolates (Streptococcus pneumoniae [10]; Streptococcus pneumoniae, serotype 35B): 73%; MIC90 (Streptococcus pneumoniae [23]): > 16 µg/mL; MIC90 (Streptococcus pneumoniae [24]): > 16 µg/mL; MIC90 (Streptococcus pneumoniae [25]): 16 µg/mL (≈ 21.4 µM); percent susceptible isolates (Streptococcus pneumoniae [26]): 79%; % resistant isolates (Streptococcus pneumoniae [27]): 69% |
| C=CC1=C(C(=O)O)N2C(=O)[C@@H](NC(=O)/C(=N\O)c3csc(N)n3)[C@H]2SC1 [CEFDINIR] | 100 | 72 | 0.12 (≈ 0.303 µM) | 33 | 7 | 0 | 67 | 0.12 (≈ 0.303 µM) | 59 | 0 | 2 (≈ 5.06 µM) | 0 | > 8 | 100 | 100 | 0.12 (≈ 0.303 µM) | 46 | 53 | 100 | > 8 | % resistant isolates (Streptococcus pneumoniae [7]): 0%; % susceptible isolates (Streptococcus pneumoniae [10]): 0%; MIC90 (Streptococcus pneumoniae [23]): 1 µg/mL (≈ 2.53 µM); MIC90 (Streptococcus pneumoniae [24]): 0.5 µg/mL (≈ 1.26 µM); MIC90 (Streptococcus pneumoniae [25]): 4 µg/mL (≈ 10.1 µM); percent susceptible isolates (Streptococcus pneumoniae [26]): 93%; % resistant isolates (Streptococcus pneumoniae [27]): 15% |
| CO/N=C(\C(=O)N[C@@H]1C(=O)N2C(C(=O)OC(C)OC(C)=O)=C(COC(N)=O)CS[C@H]12)c1ccco1 (stereo partly specified) [CEFUROXIME AXETIL] | 100 | 72 | ≤ 0.5 | 33 | 21 | 0 | 67 | ≤ 0.5 | 64 | 0 | 4 (≈ 7.84 µM) | 0 | 32 (≈ 62.7 µM) | 100 | 100 | ≤ 0.5 | 46 | 52 | 100 | 16 (≈ 31.3 µM) | % resistant isolates (Streptococcus pneumoniae [7]): 0%; % susceptible isolates (Streptococcus pneumoniae [10]): 0%; MIC90 (Streptococcus pneumoniae [23]): 4 µg/mL (≈ 7.84 µM); MIC90 (Streptococcus pneumoniae [24]): 1 µg/mL (≈ 1.96 µM); MIC90 (Streptococcus pneumoniae [25]): 4 µg/mL (≈ 7.84 µM); percent susceptible isolates (Streptococcus pneumoniae [26]): 93%; % resistant isolates (Streptococcus pneumoniae [27]): 15% |
